Results published in patent US20250059610A1, “METHODS OF TREATING TUMOR” (priority 2017, published 2025).

Columns and labels:
[1] = Phase 3 study of first-line nivolumab versus platinum-based chemotherapy: safety (adverse events); details: in vivo
Protocol: Maintenance pemetrexed was allowed in patients with nonsquamous NSCLC who had stable disease or response after cycle 4. […] Concomitant systemic corticosteroid treatment (<3-week courses) was allowed for non-autoimmune conditions, including but not limited to treatment-related adverse events (AEs) with a potential immunologic cause.
Tumor response was assessed every 6 weeks until week 48 and every 12 weeks thereafter. Safety assessments included the recording of AEs, graded according to the National Cancer Institute Common Terminology Criteria for Adverse Events, version 4.0.

[2] = test system: metastatic or surgically unresectable urothelial carcinoma (UC); assay: Single-arm phase II study of nivolumab (CheckMate 275), TMB analysis; type: in vivo, human
Protocol: Tumor DNA from pretreatment archival tumor tissue and matched whole blood samples was profiled by whole exome sequencing. TMB was defined as the total number of missense somatic mutations per tumor, and was evaluated as a continuous variable and by tertiles (missense count: high 167, medium 85-166, low <85). Cox models were used to explore the association between TMB and progression-free survival (PFS) and overall survival (OS); and logistic regression for objective response rate (ORR). Tumor PD-ligand 1 (PD-L1) expression was assessed by Dako PD-L1 immunohistochemistry 28-8 assay and was categorized as <1%.

[3] = test system: stage IV or recurrent NSCLC; assay: Multi-part phase 3 study of first-line nivolumab plus ipilimumab versus chemotherapy: efficacy; type: in vivo, human
From the text: Patients had chemotherapy-naive, stage IV or recurrent NSCLC.
Adult patients with PD-L1-histologically confirmed squamous or nonsquamous stage IV/recurrent NSCLC and Eastern Cooperative Oncology Group (ECOG) performance status (Oken M. M., et al. Am J Clin Oncol 5:649-55 (1982)) of 0 or 1 who had received no prior systemic anticancer therapy as primary therapy for advanced or metastatic disease were eligible for the study. All patients underwent imaging to screen for brain metastases. Patients with known EGFR mutations or ALK translocations sensitive to targeted therapy, an autoimmune disease, or untreated central nervous system metastases were excluded.
All treatments continued until disease progression, unacceptable toxicity, or completion per protocol (up to 2 years for immunotherapy). Crossover between treatment arms within the study was not permitted.
Part 1 of this study had two co-primary endpoints.
Hazard ratios of PFS with associated two-sided confidence intervals were estimated using an unstratified Cox proportional hazard model, with treatment group as a single covariate. A multivariate analysis was prespecified in patients with TMB≥10 mutations/Mb to assess the influence of known prognostic baseline factors on PFS. […] Survival curves were estimated using Kaplan-Meier methodology.

In the case of Nivolumab, the “Treatment-related adverse events leading to discontinuation: Aspartate aminotransferase increased” value [1] was 5 (1.9) n (%), the “Treatment-related adverse events leading to discontinuation: Cholestasis” value [1] was 1 (0.4) n (%) and the “Treatment-related adverse events leading to discontinuation: Colitis” value [1] was 2 (0.7) n (%). The “Treatment-related adverse events leading to discontinuation: Confused state” value [1] was 1 (0.4) n (%), the “Treatment-related adverse events leading to discontinuation: Hypersensitivity” value [1] was 1 (0.4) n (%) and the “Treatment-related adverse events leading to discontinuation: Interstitial lung disease” value [1] was 1 (0.4) n (%). The “Treatment-related adverse events leading to discontinuation: Multiple organ dysfunction” value [1] was 1 (0.4) n (%), the “Treatment-related adverse events leading to discontinuation: Nausea” value [1] was 1 (0.4) n (%) and the “Treatment-related adverse events leading to discontinuation: Pericardial effusion malignant” value [1] was 1 (0.4) n (%). The “Treatment-related adverse events leading to discontinuation: Pneumonitis” value [1] was 3 (1.1) n (%), the “Treatment-related adverse events leading to discontinuation: Rash” value [1] was 1 (0.4) n (%) and the “Treatment-related adverse events leading to discontinuation: Rash maculopapular” value [1] was 1 (0.4) n (%). The “Treatment-related adverse events leading to discontinuation: Rash papular” value [1] was 1 (0.4) n (%), the “Treatment-related adverse events leading to discontinuation: Stevens-Johnson syndrome” value [1] was 1 (0.4) n (%) and the “Treatment-related adverse events leading to discontinuation: Transaminases increased” value [1] was 1 (0.4) n (%). The “Treatment-related adverse events: Any event” value [1] was 190 (71.2) n (%), the “Treatment-related adverse events: Leukopenia” value [1] was 0 n (%) and the “Treatment-related adverse events: Neutropenia” value [1] was 0 n (%). The “Treatment-related adverse events: Neutrophil count decreased” value [1] was 1 (0.4) n (%), the “Treatment-related serious adverse events: Anemia” value [1] was 0 n (%) and the “Treatment-related serious adverse events: Aspartate aminotransferase increased” value [1] was 6 (2.2) n (%). The “Treatment-related serious adverse events: Febrile neutropenia” value [1] was 0 n (%), the “Treatment-related serious adverse events: Thrombocytopenia” value [1] was 0 n (%) and the “OS, median” value ([2]; All Pts) was 8.57 months. For the same substance, the “PFS, median” value ([2]; All Pts) was 2.00 month, the ORR ([2]; All Pts (N 270)) was 20.0% and the ORR ([2]; All Pts, PD-L1 1%) was 25.0%. For the same substance, the “OS, median” value ([2]; All Pts, PD-L1 1%) was 11.63 months, the “PFS, median” value ([2]; All Pts, PD-L1 1%) was 3.53 month and the ORR ([2]; All Pts, PD-L1 <1%) was 15.8%. For the same substance, the “OS, median” value ([2]; All Pts, PD-L1 <1%) was 5.95 months, the “PFS, median” value ([2]; All Pts, PD-L1 <1%) was 1.87 month and the ORR ([2]; TMB High) was 31.9%. For the same substance, the “OS, median” value ([2]; TMB High) was 11.63 months, the “PFS, median” value ([2]; TMB High) was 3.02 month and the ORR ([2]; TMB High, PD-L1 1%) was 33.3%. The “OS, median” value ([2]; TMB High, PD-L1 1%) was 10.60 months, the “PFS, median” value ([2]; TMB High, PD-L1 1%) was 3.52 month and the ORR ([2]; TMB High, PD-L1 <1%) was 30.4%. The “PFS, median” value ([2]; TMB High, PD-L1 <1%) was 3.02 month, the ORR ([2]; TMB Low) was 10.9% and the “OS, median” value ([2]; TMB Low) was 5.72 months. For the same substance, the “PFS, median” value ([2]; TMB Low) was 1.91 month, the ORR ([2]; TMB Low, PD-L1 1%) was 23.8% and the “OS, median” value ([2]; TMB Low, PD-L1 1%) was 8.57 months. For the same substance, the “PFS, median” value ([2]; TMB Low, PD-L1 1%) was 3.12 month, the ORR ([2]; TMB Low, PD-L1 <1%) was 0% and the “OS, median” value ([2]; TMB Low, PD-L1 <1%) was 4.96 months. The “PFS, median” value ([2]; TMB Low, PD-L1 <1%) was 1.77 month, the ORR ([2]; TMB Medium) was 17.4% and the “OS, median” value ([2]; TMB Medium) was 9.66 months. For the same substance, the “PFS, median” value ([2]; TMB Medium) was 1.87 month, the ORR ([2]; TMB Medium, PD-L1 1%) was 12.0% and the “OS, median” value ([2]; TMB Medium, PD-L1 1%) was 11.30 months. For the same substance, the “PFS, median” value ([2]; TMB Medium, PD-L1 1%) was 1.94 month, the ORR ([2]; TMB Medium, PD-L1 <1%) was 23.8% and the “OS, median” value ([2]; TMB Medium, PD-L1 <1%) was 4.53 months. For the same substance, the “PFS, median” value ([2]; TMB Medium, PD-L1 <1%) was 1.77 month, the “OS, median” value ([2]; TMB Subgroup) was 7.23 months and the “PFS, median” value ([2]; TMB Subgroup) was 2.00 month. For the same substance, the ORR ([2]; TMB Subgroup (N 139)) was 20.1%, the ORR ([2]; TMB Subgroup, PD-L1 1%) was 22.9% and the “OS, median” value ([2]; TMB Subgroup, PD-L1 1%) was 10.28 months. The “PFS, median” value ([2]; TMB Subgroup, PD-L1 1%) was 2.30 month, the ORR ([2]; TMB Subgroup, PD-L1 <1%) was 17.4% and the “OS, median” value ([2]; TMB Subgroup, PD-L1 <1%) was 5.68 months. The “PFS, median” value ([2]; TMB Subgroup, PD-L1 <1%) was 1.87 month, the “median PFS” value ([3]; TMB≥10 mutations/Mb and ≥1% PD-L1 expression) was 4.2 months and the “median PFS” value ([3]; TMB≥13 mutations/Mb and ≥1% PD-L1 expression) was 4.2 months.
